Measurements: article PMC4193996 (Journal of Experimental & Clinical Cancer Research : CR, 2014)

Columns and labels:
hERG = hERG (Homo sapiens, UniProt Q12809); experiment: hERG tail current inhibition in a patch clamp assay; type: cell-based; details: read-out: hERG % inh @10 μM
Procedure: (§1) hEGR study and the M2 and the β2 receptor inhibition assay were performed as previously reported.
(§2) The new G-quadruplex ligands were designed in an attempt to obtain molecules with improved toxicological and on-target profiles, but maintaining the same favorable chemical and pharmacological features of the lead compound 1. With the aim of selecting the best variants, a step by step comparative analysis of their off- and on-target properties was performed. Initially the new molecules were tested for their ability to interact with and inhibit the human recombinant β2 adrenergic and M2 muscarinic receptors, and to reduce the hERG tail current in a patch clamp assay. […] Therefore, we might expect that the new ligands would impair cardiac functionality to a lesser extent than the lead molecule does.

[1] = tested on: h-Tel quadruplex DNA, 5'-biotin-d[AG3(T2AG3)3] (DNA, G4) AGGGTTAGGGTTAGGGTTAGGG; experiment: SPR
HT29 cells = experiment: Colony forming ability, single agent or combined with SN-38; type: cell-based, human
Procedure: The HT29 cells were seeded in 60 mm- Petri dishes at a density of 5x10^4 cells/ plate in DMEM medium plus 10% serum FCS. After 24 hours cells were exposed to the following drugs: Ethyl-10-hydroxy-camptothecin (SN-38; 0.2, 0.4, 0.8 μM for 2 hrs), compound 8 (at 0.1, 0.2 and 0.4 μM for 96 hours) and compound 1 (0.5 and 1 μM for 96 hours). In the combination experiments the two different sequence of drug administration were evaluated: campthotecin followed by G-quadruplex ligands and the inverse sequence at fixed equipotent ratios. The medium containing the first drug was removed and replaced with fresh medium containing the second drug. Colony forming ability was evaluated as previously reported.
Synergism, additivity, and antagonism were assessed by isobologram analysis as reported previously. Combination index (CI) values <0.9, > 0.9 < 1.2, and >1.2 indicate synergism, additivity, and antagonism, respectively. The Student’s t-test (unpaired, two-tailed) was used for comparing statistical differences. Differences were considered statistically significant when P < 0.05.
We have previously reported that compound 1 in combination therapy with topoisomerase (TOPO) I inhibitors (Camptothecins) produced a synergistic antitumoral activitiy in in vitro and in vivo models. […] The study of in vitro interaction between agent 8 and ethyl-10-hydroxy-camptothecin (SN-38), the active metabolite of camptothecin Irinotecan, was preceded by experiments in which the cell colony-forming ability of the human colorectal adenocarcinoma HT29 cells was evaluated at different doses of compound 1 or 8. […]
Figure 3 Anti-tumor efficacy of compound 8 in single or combined administration with the topoisomerase I inhibitor SN-38. […] Surviving fractions were calculated as the ratio of absolute survival of the treated sample/absolute survival of the untreated sample. […] In the histograms the surviving fractions calculated as in (A) are reported. […] (C) Combination Index for SN-38 and 8 was calculated by the Chou–Talalay method. […]

[2] = molecular target: human recombinant β2 adrenergic receptor (Homo sapiens, UniProt P07550); experiment: β2 adrenergic receptor inhibition assay; type: binding; details: read-out: β2 adrenergic % inh @1 μM
Procedure: as §1, §2

[3] = tested on: human 'normal' lung WI-38 cells; experiment: MTT proliferation assay, WI-38; type: cell-based
Procedure: Normal WI-38 diploid human lung fibroblasts and the human colorectal adenocarcinoma HT29 cells were obtained from American Type Culture Collection (Manassas, VA, USA). BJ fibroblasts expressing hTERT and SV40 early region (BJ-EHLT) were obtained as previously reported. Cells were grown in Dulbecco Modified Eagle Medium (D-MEM, Invitrogen Carlsbad, CA, USA) supplemented with 10% fetal calf serum, 2 mM L-glutamin and antibiotics.
MTT (3-(4,5-Dimethylthiazol-2-yl)-2,5-diphenyltetrazolium Bromide) assay was performed in treated and untreated cells for 96 hours. Cells were incubated with MTT solution (Sigma-Aldrich), and the purple formazan crystals were dissolved in isopropanol. Optical densities (OD) at 540 nm was determined on microplate reader.
Firstly, we investigated if they were able to efficiently promote growth inhibition of tumor cells without affecting the survival of normal cells in vitro. In Table 1 we report for each compound the concentration causing 50% of growth inhibition (GI50) calculated by performing a proliferation assay in the human colon cancer cell line HT-29 or in the human ‘normal’ lung WI-38 cells. […] On the basis of results described so far, we decided to exclude from the further analysis ligand 10 for its high value of hERG inhibition (95%) (Table 1).

[4] = molecular target: T1, human recombinant M2 muscarinic receptor (Homo sapiens, UniProt P08172); experiment: M2 muscarinic receptor inhibition assay; type: binding; details: read-out: Muscarinic (M2) % inh @1 μM
T1 sequence (P08172 1-466): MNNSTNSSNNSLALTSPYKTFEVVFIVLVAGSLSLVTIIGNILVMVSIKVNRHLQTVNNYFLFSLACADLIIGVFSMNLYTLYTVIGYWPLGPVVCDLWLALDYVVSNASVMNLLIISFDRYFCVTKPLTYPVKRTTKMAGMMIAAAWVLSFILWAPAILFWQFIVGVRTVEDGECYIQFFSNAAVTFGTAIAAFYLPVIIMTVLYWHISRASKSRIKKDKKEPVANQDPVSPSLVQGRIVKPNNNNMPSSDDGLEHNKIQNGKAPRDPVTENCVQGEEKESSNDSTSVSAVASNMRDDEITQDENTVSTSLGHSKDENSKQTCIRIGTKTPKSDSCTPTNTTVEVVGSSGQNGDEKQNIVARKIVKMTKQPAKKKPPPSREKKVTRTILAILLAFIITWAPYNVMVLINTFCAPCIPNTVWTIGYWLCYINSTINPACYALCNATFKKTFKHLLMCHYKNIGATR
Procedure: as §1, §2

human recombinant β2 adrenergic receptor, sequence (P07550 whole entry): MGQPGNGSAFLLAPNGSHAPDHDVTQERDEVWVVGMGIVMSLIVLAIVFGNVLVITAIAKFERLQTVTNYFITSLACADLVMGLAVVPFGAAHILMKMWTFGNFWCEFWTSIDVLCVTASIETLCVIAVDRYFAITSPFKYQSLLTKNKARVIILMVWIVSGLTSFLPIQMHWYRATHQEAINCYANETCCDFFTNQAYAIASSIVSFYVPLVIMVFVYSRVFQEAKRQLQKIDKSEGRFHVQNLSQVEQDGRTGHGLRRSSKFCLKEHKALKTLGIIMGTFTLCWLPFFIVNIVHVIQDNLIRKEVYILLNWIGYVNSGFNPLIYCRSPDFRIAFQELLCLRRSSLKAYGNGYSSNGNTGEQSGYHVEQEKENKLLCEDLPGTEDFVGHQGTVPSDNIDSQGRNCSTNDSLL
hERG, sequence (Q12809 whole entry): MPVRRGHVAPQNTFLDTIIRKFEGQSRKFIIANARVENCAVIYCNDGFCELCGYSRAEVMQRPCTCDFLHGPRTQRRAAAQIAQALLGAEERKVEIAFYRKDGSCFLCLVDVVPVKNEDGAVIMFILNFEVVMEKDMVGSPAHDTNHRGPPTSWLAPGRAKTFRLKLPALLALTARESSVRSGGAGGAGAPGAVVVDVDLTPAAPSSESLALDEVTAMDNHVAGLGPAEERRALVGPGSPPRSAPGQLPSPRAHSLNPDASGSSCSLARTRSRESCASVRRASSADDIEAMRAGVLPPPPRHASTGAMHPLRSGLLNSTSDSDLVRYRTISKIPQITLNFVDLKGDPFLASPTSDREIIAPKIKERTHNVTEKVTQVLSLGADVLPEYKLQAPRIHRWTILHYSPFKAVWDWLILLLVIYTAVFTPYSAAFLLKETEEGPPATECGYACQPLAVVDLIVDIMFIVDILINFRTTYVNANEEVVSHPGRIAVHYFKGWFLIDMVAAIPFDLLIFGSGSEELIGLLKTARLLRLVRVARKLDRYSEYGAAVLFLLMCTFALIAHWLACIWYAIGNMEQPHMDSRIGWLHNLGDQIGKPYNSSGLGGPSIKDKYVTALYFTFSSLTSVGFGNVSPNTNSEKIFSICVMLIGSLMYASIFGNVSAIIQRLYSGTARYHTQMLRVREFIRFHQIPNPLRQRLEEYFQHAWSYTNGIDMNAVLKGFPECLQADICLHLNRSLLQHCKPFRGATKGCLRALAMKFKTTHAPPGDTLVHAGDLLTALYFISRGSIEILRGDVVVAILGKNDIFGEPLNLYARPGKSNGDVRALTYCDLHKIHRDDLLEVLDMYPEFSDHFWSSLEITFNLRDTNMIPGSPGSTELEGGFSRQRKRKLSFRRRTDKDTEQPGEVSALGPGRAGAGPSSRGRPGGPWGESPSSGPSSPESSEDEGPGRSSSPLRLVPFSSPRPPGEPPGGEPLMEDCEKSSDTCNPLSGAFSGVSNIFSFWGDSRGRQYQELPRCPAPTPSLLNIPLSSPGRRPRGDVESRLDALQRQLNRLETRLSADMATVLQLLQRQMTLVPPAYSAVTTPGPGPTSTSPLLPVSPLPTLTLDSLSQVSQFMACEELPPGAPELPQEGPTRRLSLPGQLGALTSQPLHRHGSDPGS

K [1]: 1.42e+07 M⁻¹ | inhibition at 1 µM [2]: 2% | inhibition at 1 µM [4]: 99%
Compound: CC(=O)NCC#Cc1ccc2c3cccc4c3c([n+](C)c2c1)-c1ccccc1N4C [Compound 8]
inhibition at 10 µM (hERG): 40% | cell survival (colony-forming ability), single agent (HT29 cells; HT29, 96 hours, 0.1 to 0.8 μM): inhibited cell survival in a dose-dependent manner like compound 1 but more efficiently so | Interaction with SN-38, inverse sequence (HT29 cells; HT29, G4-ligand followed by SN-38): additive or slight synergistic interaction | Combination Index (CI) with SN-38 (HT29 cells; HT29, SN-38 (2 hrs) followed by the G4-ligand (96 hours)): < 0.5 | Ratio PMX WI38/HT29 ([3]; GI50 WI-38 / GI50 HT-29): 33,5 | GI50 ([3]; Homo sapiens, WI-38, MTT, 96 hours): 25.1 µM
